Measurements reported in patent publication US4348410A, “Cyclohexane carboxylic acid derivatives” (Nippon Chemiphar Co., Ltd., priority 1979, dated 1982).
Where a name gives a salt, the structure may show the parent alone. Values belong to the molecule of their own block, whether it stands above or below them.

Key:
trypsin = target: T1, trypsin (Bos taurus, UniProt P00760); test: Inhibitory effects on trypsin (hydrolysis of p-tosylarginine methyl ester); assay type: biochemical; conditions: for Inhibition (%) Trypsin: 37° C., 10 minutes, concentration not given
T1 sequence (P00760 24-246): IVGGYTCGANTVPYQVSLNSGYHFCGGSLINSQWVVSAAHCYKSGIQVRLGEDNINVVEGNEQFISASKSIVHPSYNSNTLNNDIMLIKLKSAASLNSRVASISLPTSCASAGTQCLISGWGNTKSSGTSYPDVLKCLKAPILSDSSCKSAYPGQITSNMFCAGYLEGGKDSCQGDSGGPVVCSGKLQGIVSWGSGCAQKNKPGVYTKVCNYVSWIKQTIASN
Method: In particular, inhibitory effects of the compounds on hydrolysis of p-tosylarginine methyl ester by trypsin were examined (incubated at 37° C. for 10 minutes).

chymotrypsin = chymotrypsin (Bos taurus, UniProt P00766); test: Inhibitory effects on chymotrypsin (hydrolysis of N-acetyl-L-tyrosine ethyl ester); assay type: biochemical; conditions: for Inhibition (%) Chymotrypsin: 37° C., 10 minutes, concentration not given
Method: The compounds of the formula (I) have excellent inhibitory effects on protease. The inhibitory effects were determined by the following methods: Inhibitory effects on the compounds of chymotrypsin were determined according to the method described by M. […] In particular, inhibitory effects of the compounds on hydrolysis of N-acetyl-L-tyrosine ethyl ester by chymotrypsin were examined (incubated at 37° C. for 10 minutes).

thrombin = thrombin (Bos taurus, UniProt P00735); test: Inhibitory effects on thrombin (hydrolysis of p-tosylarginine methyl ester); assay type: biochemical; conditions: for Inhibition (%) Thrombin: 37° C., 10 minutes, concentration not given
Method: The compounds of the formula (I) have excellent inhibitory effects on protease. The inhibitory effects were determined by the following methods:
Inhibitory effects of the compounds on thrombin were determined according to the method described by M. Muramatsu et al (The Journal of Biochemistry, Volume 65 (1), 17 (1969)). In particular, inhibitory effects of the compounds on hydrolysis of p-tosylarginine methyl ester by thrombin were examined (incubated at 37° C. for 10 minutes).

urokinase = urokinase (Homo sapiens, UniProt P00749); test: Inhibitory effects on urokinase (hydrolysis of N-acetylglycyl lysine methyl ester); assay type: biochemical; conditions: for Inhibition (%) Urokinase: 37° C., 10 minutes, concentration not given; for inhibition at 100 µM: 0.1 mM, read-out: inhibited hydrolytic activity by urokinase
Method: The compounds of the formula (I) have excellent inhibitory effects on protease. The inhibitory effects were determined by the following methods: Inhibitory effects of the compounds on urokinase were determined according to the method described by A. J. Joeson et al (Throm. […]. 21, 259-272 (1969)). In particular, inhibitory effects of the compounds on hydrolysis of N-acetylglycyl lysine methyl ester by urokinase were determined (incubated at 37° C. for 10 minutes).

acetic acid ulcers = test: Acetic acid ulcers; assay type: in vivo, Male Sprague-Dawley strain rats; conditions: for Ulcer Grade 1 (number of rats): ulcer area 0-10 mm^2; for Ulcer Grade 2 (number of rats): ulcer area 11-20 mm^2; for Ulcer Grade 3 (number of rats): ulcer area 21-30 mm^2; for Ulcer Grade 4 (number of rats): ulcer area 31-40 mm^2; for Ulcer Grade 5 (number of rats): ulcer area >40 mm^2
Method: Male Sprague-Dawley strain rats, weighing about 200 g were used. Under ether anesthesia 10% acetic acid solution (0.05 ml) was injected carefully between the serous membrane and the muscle near the pylorus, and the abdomen was closed. Thereafter, the animals were maintained under conditions and administered 1 ml/100 g of each test drug dissolved or suspended in 0.5% carboxymethylcellulose solution p.o. daily×10 starting from the next day of the operation. On the 11th day, the rats were sacrificed under ether anesthesia, and the stomachs were removed. The area of the ulcer was measured and graded into 5 degrees as an ulcer index according to the following method: […]

Shay ulcers = Shay ulcers (pylorus ligation); assay type: in vivo, Male Sprague-Dawley strain rats; conditions: for Ulcer Grade 0 (number of rats): 0=no lesion; for Ulcer Grade 1 (number of rats): 1=hemorrhagic suffusion; for Ulcer Grade 2 (number of rats): 2=1-5 small ulcers (<3 mm); for Ulcer Grade 3 (number of rats): 3=many small ulcers (more than 5) or 1 ulcer of marked size; for Ulcer Grade 4 (number of rats): 4=many ulcers of marked size; for Ulcer Grade 5 (number of rats): 5=perforated ulcer
Method: The rats were sacrificed 18 hours later by an overdose of ether and the stomach removed. The stomach was incised along the greater curvature and the surface area of each lesion in forestomach was measured by the naked eye. […] 4=many ulcers of marked size 5=perforated ulcer The test drugs were given intraperitoneally, immediately after pylorus ligation.

gastric secretion = test: Influence to the gastric secretion (pylorus ligation); assay type: in vivo, Male Sprague-Dawley strain rats; conditions: 12.5 mg/kg i.p.
Method: Male Sprague-Dawley strain rats, weighing 160-180 g were deprived of food but allowed free access to water for 20 hours prior to experiment. […] The test drug was given intraperitoneally immediately after pylorus ligation. The rats were sacrificed 3, 6 and 12 hours later and the stomachs removed. The gastric juice was collected and analyzed for volume. Then the gastric juice was centrifuged at 1300 g for 10 minutes at room temperature to give the supernatant. The total acidity and peptic activity of the supernatant were determined. Total acidity was determined by titrating with 0.01 N NaOH. […] Total acidity is shown as the titration volume (ml) and peptic activity is shown as the corresponding weight (mg) to crystal pepsin.

SMILES: CCOC(=O)c1ccccc1OC(=O)[C@H]1CC[C@H](CNC(=N)N)CC1 [Compound 9]
Inhibition (%) Trypsin (trypsin): 28%
Inhibition (%) Chymotrypsin (chymotrypsin): 60%
Inhibition (%) Thrombin (thrombin): 29%
Inhibition (%) Urokinase (urokinase): 50%
Ulcer Grade 1 (number of rats) (acetic acid ulcers; 125 mg/kg p.o. daily×10): 11
Ulcer Grade 2 (number of rats) (acetic acid ulcers; 125 mg/kg p.o. daily×10): 3
Ulcer Grade 3 (number of rats) (acetic acid ulcers; 125 mg/kg p.o. daily×10): 1
Ulcer Grade 4 (number of rats) (acetic acid ulcers; 125 mg/kg p.o. daily×10): 1
Ulcer Grade 5 (number of rats) (acetic acid ulcers; 125 mg/kg p.o. daily×10): 1
Ulcer Grade 1 (number of rats) (acetic acid ulcers; 250 mg/kg p.o. daily×10): 11
Ulcer Grade 2 (number of rats) (acetic acid ulcers; 250 mg/kg p.o. daily×10): 2
Ulcer Grade 3 (number of rats) (acetic acid ulcers; 250 mg/kg p.o. daily×10): 1
Ulcer Grade 4 (number of rats) (acetic acid ulcers; 250 mg/kg p.o. daily×10): 0
Ulcer Grade 5 (number of rats) (acetic acid ulcers; 250 mg/kg p.o. daily×10): 0
Ulcer Grade 1 (number of rats) (acetic acid ulcers; 500 mg/kg p.o. daily×10): 12
Ulcer Grade 2 (number of rats) (acetic acid ulcers; 500 mg/kg p.o. daily×10): 2
Ulcer Grade 3 (number of rats) (acetic acid ulcers; 500 mg/kg p.o. daily×10): 1
Ulcer Grade 4 (number of rats) (acetic acid ulcers; 500 mg/kg p.o. daily×10): 0
Ulcer Grade 5 (number of rats) (acetic acid ulcers; 500 mg/kg p.o. daily×10): 0

SMILES: N=C(N)NC[C@H]1CC[C@H](C(=O)Oc2ccccc2C(=O)O)CC1 [Compound 10]
Ulcer Grade 1 (number of rats) (acetic acid ulcers; 300 mg/kg p.o. daily×10): 4
Ulcer Grade 2 (number of rats) (acetic acid ulcers; 300 mg/kg p.o. daily×10): 2
Ulcer Grade 3 (number of rats) (acetic acid ulcers; 300 mg/kg p.o. daily×10): 1
Ulcer Grade 4 (number of rats) (acetic acid ulcers; 300 mg/kg p.o. daily×10): 0
Ulcer Grade 5 (number of rats) (acetic acid ulcers; 300 mg/kg p.o. daily×10): 2
Ulcer Grade 1 (number of rats) (acetic acid ulcers; 500 mg/kg p.o. daily×10): 4
Ulcer Grade 2 (number of rats) (acetic acid ulcers; 500 mg/kg p.o. daily×10): 3
Ulcer Grade 3 (number of rats) (acetic acid ulcers; 500 mg/kg p.o. daily×10): 1
Ulcer Grade 4 (number of rats) (acetic acid ulcers; 500 mg/kg p.o. daily×10): 0
Ulcer Grade 5 (number of rats) (acetic acid ulcers; 500 mg/kg p.o. daily×10): 0

SMILES: Cl.N=C(N)NC[C@H]1CC[C@H](C(=O)Oc2cccnc2)CC1 [Compound 7, 3pyridyl trans4-guanidinomethylcyclohexanecarboxylate hydrochloride]
Inhibition (%) Trypsin (trypsin): 23%
Inhibition (%) Chymotrypsin (chymotrypsin): 70%
Inhibition (%) Thrombin (thrombin): 32%
Inhibition (%) Urokinase (urokinase): 67%

SMILES: COc1cc(C=O)ccc1OC(=O)[C@H]1CC[C@H](CNC(=N)N)CC1 [Compound 2]
Inhibition (%) Trypsin (trypsin): 61%
Inhibition (%) Chymotrypsin (chymotrypsin): 100%
Inhibition (%) Thrombin (thrombin): 51%
Inhibition (%) Urokinase (urokinase): 72%
Ulcer Grade 1 (number of rats) (acetic acid ulcers; 125 mg/kg p.o. daily×10): 9
Ulcer Grade 2 (number of rats) (acetic acid ulcers; 125 mg/kg p.o. daily×10): 1
Ulcer Grade 3 (number of rats) (acetic acid ulcers; 125 mg/kg p.o. daily×10): 2
Ulcer Grade 4 (number of rats) (acetic acid ulcers; 125 mg/kg p.o. daily×10): 2
Ulcer Grade 5 (number of rats) (acetic acid ulcers; 125 mg/kg p.o. daily×10): 1
Ulcer Grade 1 (number of rats) (acetic acid ulcers; 250 mg/kg p.o. daily×10): 14
Ulcer Grade 2 (number of rats) (acetic acid ulcers; 250 mg/kg p.o. daily×10): 0
Ulcer Grade 3 (number of rats) (acetic acid ulcers; 250 mg/kg p.o. daily×10): 3
Ulcer Grade 4 (number of rats) (acetic acid ulcers; 250 mg/kg p.o. daily×10): 1
Ulcer Grade 5 (number of rats) (acetic acid ulcers; 250 mg/kg p.o. daily×10): 0
Ulcer Grade 1 (number of rats) (acetic acid ulcers; 500 mg/kg p.o. daily×10): 12
Ulcer Grade 2 (number of rats) (acetic acid ulcers; 500 mg/kg p.o. daily×10): 3
Ulcer Grade 3 (number of rats) (acetic acid ulcers; 500 mg/kg p.o. daily×10): 2
Ulcer Grade 4 (number of rats) (acetic acid ulcers; 500 mg/kg p.o. daily×10): 0
Ulcer Grade 5 (number of rats) (acetic acid ulcers; 500 mg/kg p.o. daily×10): 1

SMILES: CCOc1ccccc1OC(=O)[C@H]1CC[C@H](CNC(=N)N)CC1 [Compound 4]
Inhibition (%) Trypsin (trypsin): 22%
Inhibition (%) Chymotrypsin (chymotrypsin): 28%
Inhibition (%) Thrombin (thrombin): 35%
Inhibition (%) Urokinase (urokinase): 84%

SMILES: CCOC(=O)c1ccc(OC(=O)[C@H]2CC[C@H](CNC(=N)N)CC2)cc1 [Compound 6]
Inhibition (%) Trypsin (trypsin): 25%
Inhibition (%) Chymotrypsin (chymotrypsin): 70%
Inhibition (%) Thrombin (thrombin): 39%
Inhibition (%) Urokinase (urokinase): 50%

SMILES: N=C(N)NC[C@H]1CC[C@H](C(=O)Oc2ccccc2C(=O)Oc2ccccc2)CC1 [Compound 5]
Inhibition (%) Trypsin (trypsin): 38%
Inhibition (%) Chymotrypsin (chymotrypsin): 90%
Inhibition (%) Thrombin (thrombin): 34%
Inhibition (%) Urokinase (urokinase): 35%

SMILES: CCOC(=O)CCc1ccc(OC(=O)[C@H]2CC[C@H](CNC(=N)N)CC2)cc1 [Compound 8]
Inhibition (%) Trypsin (trypsin): 51%
Inhibition (%) Chymotrypsin (chymotrypsin): 20%
Inhibition (%) Thrombin (thrombin): 43%
Inhibition (%) Urokinase (urokinase): 55%
Ulcer Grade 0 (number of rats) (Shay ulcers; 200 mg/kg i.p.): 4
Ulcer Grade 1 (number of rats) (Shay ulcers; 200 mg/kg i.p.): 2
Ulcer Grade 2 (number of rats) (Shay ulcers; 200 mg/kg i.p.): 2
Ulcer Grade 3 (number of rats) (Shay ulcers; 200 mg/kg i.p.): 1
Ulcer Grade 4 (number of rats) (Shay ulcers; 200 mg/kg i.p.): 1
Ulcer Grade 5 (number of rats) (Shay ulcers; 200 mg/kg i.p.): 0
Ulcer Grade 1 (number of rats) (acetic acid ulcers; 300 mg/kg p.o. daily×10): 4
Ulcer Grade 2 (number of rats) (acetic acid ulcers; 300 mg/kg p.o. daily×10): 3
Ulcer Grade 3 (number of rats) (acetic acid ulcers; 300 mg/kg p.o. daily×10): 1
Ulcer Grade 4 (number of rats) (acetic acid ulcers; 300 mg/kg p.o. daily×10): 0
Ulcer Grade 5 (number of rats) (acetic acid ulcers; 300 mg/kg p.o. daily×10): 0

SMILES: CN1[C@@H]2CC[C@H]1C[C@@H](OC(=O)C(CO)c1ccccc1)C2 (stereo partly shown) [Compound B, atropine sulfate, reference compound]
Ulcer Grade 0 (number of rats) (Shay ulcers; 12.5 mg/kg i.p.): 2
Ulcer Grade 1 (number of rats) (Shay ulcers; 12.5 mg/kg i.p.): 1
Ulcer Grade 2 (number of rats) (Shay ulcers; 12.5 mg/kg i.p.): 0
Ulcer Grade 3 (number of rats) (Shay ulcers; 12.5 mg/kg i.p.): 1
Ulcer Grade 4 (number of rats) (Shay ulcers; 12.5 mg/kg i.p.): 3
Ulcer Grade 5 (number of rats) (Shay ulcers; 12.5 mg/kg i.p.): 3
Titratable Pepsin Output (gastric secretion; 3 hours): 3.3 ± 0.9 mg
Titratable Pepsin Output % change (gastric secretion; 3 hours): 43.1%
Titratable Pepsin Output (gastric secretion; 6 hours): 9.7 ± 1.6 mg
Titratable Pepsin Output % change (gastric secretion; 6 hours): 55.3%
Titratable Pepsin Output (gastric secretion; 12 hours): 34.2 ± 1.4 mg
Titratable Pepsin Output % change (gastric secretion; 12 hours): 41.0%

Now from value to molecule:

inhibition at 50 µM (chymotrypsin; 0.05 mM, read-out: inhibited hydrolytic activity by chymotrypsin): 50%
SMILES: CC(=O)c1ccccc1OC(=O)[C@H]1CC[C@H](CNC(=N)N)CC1 [Example 23, 2'-Acetylphenyl trans-4-guanidomethycylohexanecarboxylate hydrochloride]

inhibition at 100 µM (urokinase): 52%
SMILES: COc1ccc(OC(=O)[C@H]2CC[C@H](CNC(=N)N)CC2)cc1 [Example 21]

inhibition at 100 µM (urokinase): 50%
SMILES: COc1ccccc1OC(=O)[C@H]1CC[C@H](CNC(=N)N)CC1 [Example 20]

inhibition at 100 µM (trypsin; 0.1 mM, read-out: inhibited hydrolytic activity by trypsin): ~50%
inhibition at 100 µM (thrombin; 0.1 mM, read-out: inhibited hydrolytic activity by thrombin): ~50%
SMILES: Cc1c(C)c2c(c(C)c1OC(=O)[C@H]1CC[C@H](CNC(=N)N)CC1)CCC(C)(CCCC(C)CCCC(C)CCCC(C)C)O2 (stereo partly shown) [Example 1]

inhibition at 100 µM (urokinase): 56%
SMILES: N=C(N)NC[C@H]1CC[C@H](C(=O)Oc2ccccc2C=O)CC1 [Example 19]
